Results from publication PMC6664820, “Novel natural and synthetic inhibitors of solute carriers SGLT1 and SGLT2” (Pharmacology Research & Perspectives, 2019).
Structures can show the parent of a compound that is named as a salt. Where two headings read alike, the source gives them in different places. Non-standard residues stand in square brackets, D forms with d. Residues, ends and D or L forms follow the SMILES beside them. pGlu = O=C1CC[CH](C(=O)O)N1

Legend:
[1] = biological target: T1, SGLT1 (Homo sapiens, UniProt P13866); assay: SGLT1 inhibition assay for validation of screening hits and similar compounds (1‐NBD‐glucose uptake, CHO‐hSGLT1 cells); type: cell-based; design: activity: dose or concentration left out as unconfirmed; conditions: for activity: compound, normalized 1-NBD-glucose uptake, CHO-hSGLT1 cells; for activity / remaining activity at 5 µM / remaining activity at 50 µM: mean; for inhibition at 50 µM: read-out: SGLT1 inhibition; for remaining activity at 5 µM / remaining activity at 50 µM: 0.5 h, concentration not given, read-out: NORMALIZED SGLT1 ACTIVITY (%)
T1 sequence (P13866 1-664): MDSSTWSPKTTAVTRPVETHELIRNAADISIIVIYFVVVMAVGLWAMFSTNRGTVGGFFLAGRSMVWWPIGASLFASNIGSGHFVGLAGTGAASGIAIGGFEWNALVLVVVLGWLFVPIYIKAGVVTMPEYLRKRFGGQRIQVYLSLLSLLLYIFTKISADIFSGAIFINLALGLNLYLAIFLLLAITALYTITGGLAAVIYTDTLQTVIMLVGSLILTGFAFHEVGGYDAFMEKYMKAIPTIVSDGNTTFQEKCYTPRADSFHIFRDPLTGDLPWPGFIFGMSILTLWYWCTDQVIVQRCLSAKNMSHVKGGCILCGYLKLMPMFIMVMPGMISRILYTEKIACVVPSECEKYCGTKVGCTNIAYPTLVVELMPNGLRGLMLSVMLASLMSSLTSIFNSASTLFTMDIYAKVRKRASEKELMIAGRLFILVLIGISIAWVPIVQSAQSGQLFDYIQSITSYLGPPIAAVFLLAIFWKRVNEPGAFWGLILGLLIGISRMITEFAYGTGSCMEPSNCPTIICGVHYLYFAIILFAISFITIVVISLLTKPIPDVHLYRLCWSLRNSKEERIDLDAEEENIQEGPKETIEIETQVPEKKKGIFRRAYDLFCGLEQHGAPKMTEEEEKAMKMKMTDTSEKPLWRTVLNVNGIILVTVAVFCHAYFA

[2] = biological target: T2, hSGLT2 (Homo sapiens, UniProt P31639); assay: SGLT2 inhibition assay for validation of screening hits and similar compounds (1‐NBD‐glucose uptake, CHO‐hSGLT2 cells); type: cell-based; design: activity: dose or concentration left out as unconfirmed; conditions: for SGLT2/SGLT1 ACTIVITY RATIO 5 uM Mean: ratio of normalized SGLT2 to SGLT1 activity at 5 uM; for remaining activity at 5 µM / remaining activity at 50 µM: 0.5 h, concentration not given, read-out: NORMALIZED SGLT2 ACTIVITY (%); for SGLT2/SGLT1 ACTIVITY RATIO, first concentration / SGLT2/SGLT1 ACTIVITY RATIO, second concentration: ratio of normalized SGLT2 to SGLT1 activity
T2 sequence (P31639 1-672): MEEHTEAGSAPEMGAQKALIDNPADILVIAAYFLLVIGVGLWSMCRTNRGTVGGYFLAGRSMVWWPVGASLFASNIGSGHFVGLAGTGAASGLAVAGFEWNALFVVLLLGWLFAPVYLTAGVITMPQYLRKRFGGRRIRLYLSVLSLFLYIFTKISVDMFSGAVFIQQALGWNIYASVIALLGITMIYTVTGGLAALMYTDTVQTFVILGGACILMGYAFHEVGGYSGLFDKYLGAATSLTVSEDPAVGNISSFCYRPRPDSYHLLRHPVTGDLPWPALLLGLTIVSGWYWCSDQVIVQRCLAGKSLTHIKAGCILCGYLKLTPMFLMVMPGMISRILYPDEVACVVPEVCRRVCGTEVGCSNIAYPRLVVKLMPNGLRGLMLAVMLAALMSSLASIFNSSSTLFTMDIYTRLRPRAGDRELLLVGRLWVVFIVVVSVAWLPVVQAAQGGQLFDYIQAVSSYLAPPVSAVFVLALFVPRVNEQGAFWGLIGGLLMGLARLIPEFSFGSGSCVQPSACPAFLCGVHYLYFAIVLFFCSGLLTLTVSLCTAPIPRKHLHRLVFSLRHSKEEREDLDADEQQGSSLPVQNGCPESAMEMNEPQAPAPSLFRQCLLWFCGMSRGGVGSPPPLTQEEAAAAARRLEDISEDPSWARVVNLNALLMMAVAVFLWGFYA

[3] = mean inhibition with 50 μmol/L inhibitor
[4] = SGLT1 and/or SGLT2, discussion statements

Row | Compound | remaining activity at 5 µM [1] [%] | remaining activity at 50 µM [1] [%] | remaining activity at 5 µM ([2]; mean) [%] | remaining activity at 50 µM ([2]; mean) [%] | also measured
1 | CC1(C)Oc2ccc3ccc(=O)oc3c2C[C@H]1O [(+)-Lomatin] |  |  |  |  | activity [1]: 124%; activity ([2]; compound, mean, normalized 1-NBD-glucose uptake, CHO-hSGLT2 cells): 115%; SGLT2/SGLT1 ACTIVITY RATIO 5 uM Mean [2]: 0.9
2 | OC(CCN1CCCCC1)(c1ccccc1)C1CCCCC1 (stereo not shown) [Trihexyphenidyl, trihexyphenidyl, reference compound] |  |  |  |  | IC50 [1]: 12 µM; SGLT1/2 inhibition stated in words [1]: novel SGLT1/2 inhibitors; inhibition at 50 µM [1]: 69%; IC50 [2]: 20 µM
3 | CNCCCN1c2ccccc2CCc2ccccc21 [desipramine, reference compound] |  |  |  |  | SGLT2/SGLT1‐50μmol/L (ratio of SGLT2 to SGLT1 activities with 50 μmol/L inhibitor) [1]: 0.5; SGLT1 inhibition [1, 3]: no inhibition
4 | CN(C)CCCN1c2ccccc2CCc2ccccc21 [imipramine, reference compound] |  |  |  |  | SGLT2/SGLT1‐50μmol/L (ratio of SGLT2 to SGLT1 activities with 50 μmol/L inhibitor) [1]: 0.4; inhibition at 50 µM [1, 3]: 24%
5 | Fc1ccccc1CN1CC[C@H](c2nnc(-c3ccco3)o2)C1 | 117 | 117 | 100 | 94 | 
6 | Oc1ccc(C=Cc2cc(O)cc3c2C(c2cc(O)cc(O)c2)C(c2ccc(O)cc2)O3)cc1 (stereo not drawn) [(+)‐ε‐viniferin] |  |  |  |  | IC50 ([1]; 1‐NBD‐glucose uptake, CHO‐hSGLT1, mean of n biological replicates, or individual measurements where n=2, read-out: SGLT1‐IC50 Mean): 58 µM; SGLT2/SGLT1‐50μmol/L (ratio of SGLT2 to SGLT1 activities with 50 μmol/L inhibitor) ([1]; listed as (+)‐ε‐Viniferin): 1.4; inhibition at 50 µM [1, 3]: 44%; IC50 ([2]; 1‐NBD‐glucose uptake, CHO‐hSGLT2, mean of n biological replicates, or individual measurements where n=2, read-out: SGLT2‐IC50 Mean): 110 µM; SGLT2 inhibition [2, 3]: little inhibition of SGLT2
7 | CN1CCC(N2CC[C@H](c3nc4cc(Cl)ccc4o3)C2)CC1 | 116 | 115 | 101 | 85 | 
8 | Oc1ccc([C@H]2c3c(O)cc4c5c3[C@@H]([C@H](c3ccc(O)cc3)c3c(O)cc(O)cc3[C@H]5[C@@H](c3ccc(O)cc3)O4)[C@@H]2c2cc(O)cc(O)c2)cc1 [Viniferol D] | 100 | 102 | 97 | 65 | SGLT2/SGLT1‐50μmol/L (ratio of SGLT2 to SGLT1 activities with 50 μmol/L inhibitor) [1]: 0.6; SGLT1 inhibition [1, 3]: no effect on SGLT1; inhibition at 50 µM [2, 3]: 35%
9 | Cc1cccc(C)c1NC(=O)CC12CCCN1CCC2 [Pilsicainide] | 94 | 89 | 90 | 78 | 
10 | CN(C)CCOC(C)(c1ccccc1)c1ccccc1 [Moxastine HCl] |  |  |  |  | SGLT2/SGLT1 ACTIVITY RATIO 5 uM Mean [2]: 0.9
11 | CN(C)CCCN1c2ccccc2CCc2ccccc21 [Imipramine HCl] |  |  |  |  | SGLT2/SGLT1 ACTIVITY RATIO 5 uM Mean [2]: 0.743
12 | Cc1cccc(C)c1NC(=O)CN1CCCC1=O [Nefiracetam] | 95 | 95 | 87 | 84 | 
13 | Oc1c(I)cc(Cl)c2cccnc12 [Clioquinol, 5-Chloro-7-iodo-8-quinolinol] | 107 | 84 | 107 | 92 | 
14 | C=CC(C)(O)CC/C=C(\C)C(=O)OC1C(O)C(CO)OC(OC(=O)C23CCC(C)(C)CC2C2=CCC4C5(C)CCC(OC6OC(COC7OCC(OC(C)=O)C(O)C7OC7OC(COC(C)=O)C(O)C(O)C7O)C(O)C(O)C6O)C(C)(C)C5CCC4(C)C2(C)C(O)C3O)C1OC1OCC(OC2OCC(O)C(OC3OCC(O)C(O)C3O)C2O)C(O)C1O (stereo not shown) | 112 | 54 | 111 | 71 | 
15 | CCCCN1CCCC[C@H]1C(=O)Nc1c(C)cccc1C [levobupivacaine, reference compound] | 74 | 41 | 73 | 46 | SGLT1/2 inhibition stated in words [1, 4]: novel SGLT1/2 inhibitors
16 | CCCCN1CCCCC1C(=O)Nc1c(C)cc(C)cc1C (stereo not shown) | 80 | 44 | 73 | 50 | 
17 | c1ccc(CN2CCCCC2)cc1 [1-Benzylpiperidine] | 109 | 102 | 94 | 93 | 
18 | OC1(c2ccccc2)CCNC2CCCCC21 (stereo not shown) [4-Phenyldecahydro-4-quinolinol] | 98 | 97 | 94 | 81 | 
19 | CC=C(C)C(=O)O[C@H]1[C@@H](OC(C)=O)c2c(ccc3ccc(=O)oc23)OC1(C)C [praeruptorin C] |  |  |  |  | activity [1]: 90%
20 | Clc1ccc(C2(Cn3cncn3)OCCO2)c(Cl)c1 [Azaconazole] | 111 | 107 | 109 | 104 | 
21 | C/C=C(/C)C(=O)O[C@H]1C[C@@](C)(O)C(=O)[C@@H](OC(=O)/C(C)=C\C)[C@@]2(C)CC[C@@](O)(C(C)C)[C@H]12 [Laserpitin] |  |  |  |  | SGLT2/SGLT1 ACTIVITY RATIO, first concentration [2]: 1.0; SGLT2/SGLT1 ACTIVITY RATIO, second concentration [2]: 1.0
22 | CCCCCCCCCCCCN(C)C [Dimethyldodecylamine] |  |  |  |  | SGLT2/SGLT1 ACTIVITY RATIO, first concentration [2]: 0.9; SGLT2/SGLT1 ACTIVITY RATIO, second concentration [2]: 1.0
23 | NC(=O)C1CCCN1C(=O)C(CCC(=O)O)NC(=O)C1CCC(=O)N1 (stereo not drawn) [pGlu-Glu-Pro-Amide] ([pGlu]-Glu-Pro-NH2; configuration not given here) |  |  |  |  | SGLT2/SGLT1 ACTIVITY RATIO, first concentration [2]: 1.0; SGLT2/SGLT1 ACTIVITY RATIO, second concentration [2]: 1.0
24 | OC(CCN1CCCCC1)(c1ccccc1)C1CC2C=CC1C2 (stereo not shown) [biperiden, reference compound] |  |  |  |  | SGLT1/2 inhibition stated in words [1, 4]: novel SGLT1/2 inhibitors
25 | C1CCN2C[C@H]3C[C@H](CN4CCCC[C@@H]34)[C@H]2C1 [(+)-Sparteine] |  |  |  |  | SGLT2/SGLT1 ACTIVITY RATIO, first concentration [2]: 1.0; SGLT2/SGLT1 ACTIVITY RATIO, second concentration [2]: 1.0
26 | C/C=C(\C)C(=O)O[C@H]1[C@@H](OC(C)=O)c2c(ccc3ccc(=O)oc23)OC1(C)C [(+)‐praeruptorin A] |  |  |  |  | SGLT2/SGLT1‐50μmol/L (ratio of SGLT2 to SGLT1 activities with 50 μmol/L inhibitor) [1]: 2
27 | C1CCN2C[C@@H]3C[C@@H](CN4CCCC[C@@H]34)[C@H]2C1 [(-)-Sparteine] |  |  |  |  | SGLT2/SGLT1 ACTIVITY RATIO, first concentration [2]: 1.0; SGLT2/SGLT1 ACTIVITY RATIO, second concentration [2]: 0.9
28 | OC(CCN1CCCC1)(c1ccccc1)C1CCCCC1 (stereo not shown) [procyclidine, reference compound] |  |  |  |  | SGLT1/2 inhibition stated in words [1, 4]: novel SGLT1/2 inhibitors
29 | Cc1cccc(C)c1NC(=O)C1CCCCN1C (stereo not shown) [mepivacaine, reference compound] |  |  |  |  | inhibition at 50 µM [1, 3]: 11%
